Source: patent publication US4265884A, “Therapeutically active polypeptides or acid addition salts thereof and a process for producing such compounds” (Nordisk Insulinlaboratorium, priority 1978, dated 1981)
Where a SMILES comes first, the peptide text is derived from it.

Key:
Langerhans's islets = assay: In vitro glucose stimulated insulin secretion from isolated Langerhans's islets; type: cell-based; settings: for glucose stimulated insulin secretion, percentage of the effect of 10 mmolar glucose alone: hydrochloride, with 10 mM glucose, isolated islets preincubated 24 hours at 37° C
Description: In vitro determination of the effect or the peptides on the glucose stimulated insulin secretion was carried out on Langerhans's islets isolated by collagenase technique and preincubated 24 hours at 37° C. Secretion tests were conducted with 10 mM of glucose and three peptide concentrations.
All peptides have been tested in the form of their hydrochlorides together with 10 mmolar glucose, and the value is calculated as a percentage of the effect of 10 mmolar glucose alone.

[1] = pharmacological dosages; cited from earlier work

Compound	glucose stimulated insulin secretion, percentage of the effect of 10 mmolar glucose alone (Langerhans's islets; peptide 5mM)	glucose stimulated insulin secretion, percentage of the effect of 10 mmolar glucose alone (Langerhans's islets; peptide 5 × 10^-1 mM)	glucose stimulated insulin secretion, percentage of the effect of 10 mmolar glucose alone (Langerhans's islets; peptide 5 × 10^-2 mM)	effect on insulin liberation from isolated Langerhans's islets (in words) (Langerhans's islets; same in vitro conditions as for the present peptides)	blood sugar level [1]	secretion of insulin [1]
COC(=O)[C@H](CC(C)C)NC(=O)[C@H](CCCNC(=N)N)NC(=O)[C@H](CCC(N)=O)NC(=O)[C@@H](N)CC(C)C [Peptide 3, leuglnargleuOMe, 2HCl] (H-LQRL-OMe)	240%	127%	124%	–	–	–
secretin	–	–	–	not been possible to make secretin affect the insulin liberation	without affecting the blood sugar level	potentiate the secretion of insulin
COC(=O)[C@H](CC(C)C)NC(=O)[C@H](CCCNC(=N)N)NC(=O)[C@H](CCC(N)=O)NC(=O)[C@H](CC(C)C)NC(=O)[C@@H](N)CCCNC(=N)N [Peptide 4, argleuglnargleuOMe, 3HCl] (H-RLQRL-OMe)	153%	120%	135%	–	–	–
COC(=O)[C@H](CC(C)C)NC(=O)[C@H](CCCNC(=N)N)NC(=O)[C@H](CCC(N)=O)NC(=O)[C@H](CC(C)C)NC(=O)[C@H](CCCNC(=N)N)NC(=O)[C@H](C)NC(=O)[C@@H](N)CO [Peptide 5, seralaargleuglnargleuOMe, 3HCl] (H-SARLQRL-OMe)	268%	140%	–	–	–	–
COC(=O)[C@H](CC(C)C)NC(=O)[C@H](CCCNC(=N)N)NC(=O)[C@@H](N)CCC(N)=O [Peptide 1, glnargleuOMe, 2HCl] (H-Gln-Arg-Leu-OMe)	151%	113%	144%	–	–	–
COC(=O)[C@H](CC(C)C)NC(=O)[C@H](CCCNC(=N)N)NC(=O)[C@H](CCC(N)=O)NC(=O)[C@H](CC(C)C)NC(=O)[C@H](CCCNC(=N)N)NC(=O)[C@H](C)NC(=O)[C@H](CO)NC(=O)[C@@H](N)CC(=O)O [Peptide 6, aspseralaargleuglnargleuOMe, 3HCl] (H-DSARLQRL-OMe)	142%	110%	–	–	–	–
